The NIST ThermoML archive (doi:10.1021/je0302250)

Key:
[1] = 101.3 kPa, Liquid, Capillary tube (Ostwald / Ubbelohde) method
[2] = xn = mol fraction of the nth substance listed; settings: 101.3 kPa, Liquid, Capillary tube (Ostwald / Ubbelohde) method

CN(CCO)CCO [N-methyldiethanolamine]
[1]
Settings	viscosity [mPa·s]
313.15 K	34.62
333.15 K	14.38
353.15 K	7.082
363.15 K	5.277

CN(CCO)CCO [N-methyldiethanolamine] + O
viscosity [mPa·s], [2]
Settings	x1 = 0.06	x1 = 0.09	x1 = 0.129	x1 = 0.257	x1 = 0.372	x1 = 0.583	x1 = 0.743	x1 = 1
313.15 K	1.94	3.115	5.108	15.18	24.78	34.79	35.92	34.62
333.15 K	1.202	1.709	2.703	6.7	10.24	13.74	14.49	14.38
353.15 K	0.813	1.127	1.63	3.472	4.873	6.569	7.084	7.082
363.15 K	0.687	0.871	1.205	2.606	3.611	4.749	5.278	5.277

O [water] + CN(CCO)CCO
[2], x2 = 0
Settings	viscosity [mPa·s]
313.15 K	0.656
333.15 K	0.476
353.15 K	0.358
363.15 K	0.305
